The values that follow come from US9796725B2, “Pyrazolopyrimidinyl inhibitors of ubiquitin-activating enzyme” (Millennium Pharmaceuticals, Inc., priority 2012, dated 2017).

Experiment [1] concerns mouse acute myeloid leukemia (AML model). To be noted: cited from earlier work.
For another experiment, the target named is recombinant human UAE (Homo sapiens (Human), UniProt P22314). Put plainly: Ubiquitin Activating Enzyme (UAE) HTRF Assay. (TR-FRET usually uses a lanthanide donor and a delayed reading to cut background.)

A value given as a limit tells only on which side of the number the result lay.

Sequence of recombinant human UAE (P22314 whole entry): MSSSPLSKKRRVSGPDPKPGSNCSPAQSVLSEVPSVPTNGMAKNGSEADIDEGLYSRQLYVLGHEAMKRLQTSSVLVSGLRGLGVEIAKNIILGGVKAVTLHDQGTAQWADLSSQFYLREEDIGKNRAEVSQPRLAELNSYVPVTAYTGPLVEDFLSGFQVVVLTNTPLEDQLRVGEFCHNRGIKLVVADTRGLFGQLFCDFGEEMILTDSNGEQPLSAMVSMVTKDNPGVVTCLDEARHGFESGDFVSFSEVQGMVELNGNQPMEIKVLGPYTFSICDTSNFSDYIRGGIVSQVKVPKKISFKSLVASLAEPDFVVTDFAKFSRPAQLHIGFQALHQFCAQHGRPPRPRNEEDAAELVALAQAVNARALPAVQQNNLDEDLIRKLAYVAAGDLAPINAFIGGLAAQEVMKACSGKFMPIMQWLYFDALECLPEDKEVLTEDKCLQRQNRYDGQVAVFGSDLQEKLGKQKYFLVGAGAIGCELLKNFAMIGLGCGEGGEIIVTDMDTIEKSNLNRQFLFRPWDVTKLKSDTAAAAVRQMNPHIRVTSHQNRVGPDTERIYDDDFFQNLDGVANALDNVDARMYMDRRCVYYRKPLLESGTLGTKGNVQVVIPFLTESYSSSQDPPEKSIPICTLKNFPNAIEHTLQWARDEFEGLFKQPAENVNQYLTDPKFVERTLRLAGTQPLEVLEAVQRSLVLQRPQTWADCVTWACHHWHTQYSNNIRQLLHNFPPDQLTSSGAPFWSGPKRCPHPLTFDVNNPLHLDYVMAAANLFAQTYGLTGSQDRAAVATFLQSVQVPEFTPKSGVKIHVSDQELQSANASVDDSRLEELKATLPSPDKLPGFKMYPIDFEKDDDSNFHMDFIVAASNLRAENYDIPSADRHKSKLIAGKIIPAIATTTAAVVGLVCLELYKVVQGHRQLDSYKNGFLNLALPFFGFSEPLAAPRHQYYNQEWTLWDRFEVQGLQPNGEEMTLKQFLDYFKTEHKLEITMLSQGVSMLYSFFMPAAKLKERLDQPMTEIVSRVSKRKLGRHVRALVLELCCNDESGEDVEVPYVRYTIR
Experimental for recombinant human UAE: After incubation for 120 minutes, quantification of the FRET is performed on the Pherostar (BMG).
For compounds whose values are marked with an asterisk (*), mouse UAE was used. For all other compounds, human UAE was used.

Take `O=C1NN(c2ccc(F)c(Cl)c2)C(=O)/C1=C\c1ccc([N+](=O)[O-])o1` [PYZD-4409]: the anti-tumor activity result in experiment [1] is “demonstrated anti-tumor activity”.

For orientation: IC50 means the concentration that gives 50% inhibition. In the case of `COc1ccc(C(C)(C)C)cc1-c1cc2nccc(N[C@@H]3C[C@H](COS(N)(=O)=O)[C@@H](O)[C@H]3O)n2n1` (racemic) [Compound I-063, (rac)-((1R,2R,3S,4R)-4-{[2-(5-tert-butyl-2-methoxyphenyl)pyrazolo[1,5-a]pyrimidin-7-yl]amino}-2,3-dihydroxycyclopentyl)methyl rel-sulfamate], on recombinant human UAE, the IC50 is < 10 nM.

In the case of `NS(=O)(=O)OC[C@H]1C[C@@H](Nc2ccnc3cc(-c4cccc5cc(C(=O)O)ccc45)nn23)[C@H](O)[C@@H]1O` (relative stereo) [Compound I-099, (rac)-rel-5-[7-({(1R,2S,3R,4R)-2,3-dihydroxy-4-[(sulfamoyloxy)methyl]cyclopentyl}amino)pyrazolo[1,5-a]pyrimidin-2-y1]-2-naphthoic acid], the half-inhibitory concentration (IC50) at recombinant human UAE was < 10 nM.
